Laboratory results from publication PMC6804443 (Acta Pharmaceutica Sinica. B, 2019).
Starred links: 1 amine or outer side, 2 acyl side, 3 side chain; linkers in the order of their positions; H or OH if unused. Positions of bridges follow the written chain, without caps; N, C: chain ends. Non-standard residues stand in square brackets, D forms with d. Residues, ends and D or L forms follow the SMILES beside them. *: point of attachment. hTyr(3S-OH,4S-OH,3'-OSO3H) = N[C@H](C(=O)O)[C@H](O)[C@@H](O)c1ccc(O)c(OS(=O)(=O)O)c1; Orn(4R-OH,5R-OH) = O=C([C@H](C[C@@H](O)[C@@H](O)N[*:3])N[*:1])[*:2]; Pro(3S-OH,4S-Me) = C[C@H]1CN[C@H](C(=O)O)[C@H]1O; X1 = CCCCCOc1ccc(-c2cc(-c3ccc(C(=O)*)cc3)no2)cc1; Gln(3R-OH) = NC(=O)C[C@@H](O)[C@H](N)C(=O)O; Hyp = O=C(O)[C@@H]1C[C@@H](O)CN1

Experiments:
ALDH = type: in vitro ADME; settings: human, pooled human liver cytosol
OATP1B3 [1] = molecular target: T1, OATP1B3 (Homo sapiens, UniProt Q9NPD5); settings: IC50, OATP1B3 [X10], mean ± SD (n = 3)
T1 sequence (Q9NPD5 1-702): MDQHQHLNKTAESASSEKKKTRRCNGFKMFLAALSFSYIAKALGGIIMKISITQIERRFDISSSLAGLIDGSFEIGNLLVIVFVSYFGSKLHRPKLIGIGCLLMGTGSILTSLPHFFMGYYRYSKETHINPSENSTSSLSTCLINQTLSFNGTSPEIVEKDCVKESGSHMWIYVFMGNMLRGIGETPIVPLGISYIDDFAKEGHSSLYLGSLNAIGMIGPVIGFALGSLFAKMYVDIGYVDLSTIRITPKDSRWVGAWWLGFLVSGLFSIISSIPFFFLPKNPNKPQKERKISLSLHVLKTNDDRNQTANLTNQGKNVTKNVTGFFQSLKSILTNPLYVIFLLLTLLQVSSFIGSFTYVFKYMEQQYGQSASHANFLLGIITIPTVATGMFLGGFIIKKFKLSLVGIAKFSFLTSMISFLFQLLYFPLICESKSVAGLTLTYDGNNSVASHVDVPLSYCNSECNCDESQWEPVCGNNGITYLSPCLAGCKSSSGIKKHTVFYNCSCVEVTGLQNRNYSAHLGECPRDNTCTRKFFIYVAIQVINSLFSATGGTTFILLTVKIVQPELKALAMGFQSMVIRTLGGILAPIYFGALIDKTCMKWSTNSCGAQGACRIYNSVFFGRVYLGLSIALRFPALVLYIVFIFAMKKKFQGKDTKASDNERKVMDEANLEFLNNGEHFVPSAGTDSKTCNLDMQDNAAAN

OATP1B3 [2] = molecular target: T1, OATP1B3; test: in vitro
OATP1B3 [3] = molecular target: T1, OATP1B3; settings: antibiotic as perpetrator, salvianolic acid B (X10) as victim; (Cmax × fu-p × R)/IC50
OAT1 = molecular target: T2, OAT1 (Homo sapiens, UniProt Q4U2R8); test: OAT1 inhibition by antibiotics, transfected HEK293 cells, tanshinol as substrate
T2 sequence (Q4U2R8 1-563): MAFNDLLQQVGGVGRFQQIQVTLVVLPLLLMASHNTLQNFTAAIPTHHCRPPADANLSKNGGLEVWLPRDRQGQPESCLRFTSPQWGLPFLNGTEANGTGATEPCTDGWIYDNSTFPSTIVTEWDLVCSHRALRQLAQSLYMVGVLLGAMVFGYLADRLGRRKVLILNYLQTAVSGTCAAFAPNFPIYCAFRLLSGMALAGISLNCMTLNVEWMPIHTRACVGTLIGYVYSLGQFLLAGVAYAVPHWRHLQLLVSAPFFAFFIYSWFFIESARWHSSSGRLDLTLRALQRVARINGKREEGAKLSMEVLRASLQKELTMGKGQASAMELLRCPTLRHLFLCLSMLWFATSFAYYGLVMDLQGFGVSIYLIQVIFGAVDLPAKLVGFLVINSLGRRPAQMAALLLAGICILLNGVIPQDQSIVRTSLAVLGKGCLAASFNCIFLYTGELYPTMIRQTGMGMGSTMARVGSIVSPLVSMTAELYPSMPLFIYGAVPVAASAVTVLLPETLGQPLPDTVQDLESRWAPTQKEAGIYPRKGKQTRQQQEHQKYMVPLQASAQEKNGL

OAT2 = molecular target: T3, OAT2 (Homo sapiens, UniProt Q9Y694); test: OAT2 inhibition by antibiotics, transfected HEK293 cells, tanshinol as substrate; type: in vitro ADME
T3 sequence (Q9Y694 1-546 isoform Q9Y694-2): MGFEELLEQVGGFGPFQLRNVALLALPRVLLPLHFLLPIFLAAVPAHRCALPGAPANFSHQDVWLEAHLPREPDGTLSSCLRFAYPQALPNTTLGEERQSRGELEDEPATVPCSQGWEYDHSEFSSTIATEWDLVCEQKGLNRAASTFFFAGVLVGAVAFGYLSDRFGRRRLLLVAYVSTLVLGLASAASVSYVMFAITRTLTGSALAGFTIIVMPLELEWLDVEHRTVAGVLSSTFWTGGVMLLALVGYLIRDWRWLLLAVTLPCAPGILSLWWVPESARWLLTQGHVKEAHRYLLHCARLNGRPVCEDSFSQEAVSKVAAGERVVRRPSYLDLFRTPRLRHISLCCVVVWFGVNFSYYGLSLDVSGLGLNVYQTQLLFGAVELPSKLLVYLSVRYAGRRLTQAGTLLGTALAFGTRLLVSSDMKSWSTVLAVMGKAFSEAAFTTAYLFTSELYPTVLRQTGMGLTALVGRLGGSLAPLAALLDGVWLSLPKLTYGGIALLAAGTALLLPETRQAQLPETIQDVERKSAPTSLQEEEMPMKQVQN

UGT2B15 = molecular target: T4, UGT2B15 (Homo sapiens, UniProt P54855); type: in vitro ADME
T4 sequence (P54855 24-530): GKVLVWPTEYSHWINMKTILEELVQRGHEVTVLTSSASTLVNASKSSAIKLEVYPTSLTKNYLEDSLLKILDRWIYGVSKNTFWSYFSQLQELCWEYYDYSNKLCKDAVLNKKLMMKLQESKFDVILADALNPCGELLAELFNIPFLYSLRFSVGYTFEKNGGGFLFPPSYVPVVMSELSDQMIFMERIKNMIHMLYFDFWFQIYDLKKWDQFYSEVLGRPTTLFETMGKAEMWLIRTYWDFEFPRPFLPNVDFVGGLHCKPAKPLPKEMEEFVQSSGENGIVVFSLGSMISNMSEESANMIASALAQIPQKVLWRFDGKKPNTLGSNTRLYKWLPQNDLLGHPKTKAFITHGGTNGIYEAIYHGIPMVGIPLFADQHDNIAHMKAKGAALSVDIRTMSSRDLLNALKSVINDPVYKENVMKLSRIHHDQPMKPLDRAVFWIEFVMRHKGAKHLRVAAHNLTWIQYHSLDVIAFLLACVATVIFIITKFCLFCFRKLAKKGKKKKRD

| Compound | IC50 (ALDH) | IC50 (OATP1B3 [1]) | inhibition at 100 μmol/L (OATP1B3 [2]) | further results |
| --- | --- | --- | --- | --- |
| C[C@@H]1[C@H](O)[C@@H](C)/C=C/C=C/C=C/C=C/C=C/C=C/C=C/[C@H](O[C@@H]2O[C@H](C)[C@@H](O)[C@H](N)[C@@H]2O)C[C@@H]2O[C@](O)(C[C@@H](O)C[C@@H](O)[C@H](O)CC[C@@H](O)C[C@@H](O)CC(=O)O[C@H]1C)C[C@H](O)[C@H]2C(=O)O [A42, amphotericin B] | 87 ± 9 µM | 1 µM | 64 to 88% | inhibition at 100 μmol/L (ALDH): 56 to 88% |
| CO/N=C(\C(=O)N[C@@H]1C(=O)N2C(C(=O)O)=C(COC(C)=O)CS[C@H]12)c1csc(N)n1 [A9, cefotaxime] | – | 68 ± 20 µM | – | Inhibition DDI index, OATP1B3 (OATP1B3 [3]): 1.81–2.14; inhibition at 1000 μmol/L (OATP1B3 [2]): 64 to 88% |
| C[C@@H](O)[C@H]1C(=O)N2C(C(=O)O)=C(S[C@@H]3CN[C@H](C(=O)N(C)C)C3)[C@H](C)[C@H]12 [A2, meropenem] | 164 ± 39 µM | – | – | inhibition at 1000 μmol/L (ALDH): 56 to 88% |
| CCCCCOc1ccc(-c2cc(-c3ccc(C(=O)N[C@H]4C[C@@H](O)[C@@H](O)NC(=O)[C@@H]5[C@@H](O)[C@@H](C)CN5C(=O)[C@H]([C@H](O)CC(N)=O)NC(=O)[C@H]([C@H](O)[C@@H](O)c5ccc(O)c(OS(=O)(=O)O)c5)NC(=O)[C@@H]5C[C@@H](O)CN5C(=O)[C@H]([C@@H](C)O)NC4=O)cc3)no2)cc1 [A40, micafungin] (X1-[Orn(4R-OH,5R-OH)]T[Hyp][hTyr(3S-OH,4S-OH,3'-OSO3H)][Gln(3R-OH)][Pro(3S-OH,4S-Me)]; lactam 1-C) | – | 3 ± 1 µM | > 90% | IC50 (OAT1): 43 ± 4 µM; inhibition at 100 μmol/L (OAT1; human): ≥ 90%; IC50 (OAT2): 26 ± 2 µM; inhibition at 100 µM (OAT2; HEK293, read-out: Inhibition of OAT2): > 90%; IC50 (UGT2B15): 3 µM; inhibition at 100 μmol/L (UGT2B15; human, cDNA-expressed UGT2B15): ≥ 90% |
| CO[C@H]1/C=C/O[C@@]2(C)Oc3c(C)c(O)c4c(O)c(c(/C=N/N5CCN(C)CC5)c(O)c4c3C2=O)NC(=O)/C(C)=C\C=C\[C@H](C)[C@H](O)[C@@H](C)[C@@H](O)[C@@H](C)[C@H](OC(C)=O)[C@@H]1C [A39, rifampin] | – | 2 µM | > 90% | – |
| CC[C@H]1OC(=O)[C@H](C)[C@@H](O[C@H]2C[C@@](C)(OC)[C@@H](O)[C@H](C)O2)[C@H](C)[C@@H](O[C@@H]2O[C@H](C)C[C@H](N(C)C)[C@H]2O)[C@](C)(O)C[C@@H](C)C(=O)[C@H](C)[C@@H](O)[C@]1(C)O [A34, erythromycin] | – | 3 ± 1 µM | > 90% | Inhibition DDI index, OATP1B3 (OATP1B3 [3]): 0.35–1.04 |
| C[C@@H](O)[C@H]1C(=O)N2C(C(=O)O)=C(SCCN=CN)C[C@H]12 [A1, imipenem] | 120 ± 30 µM | – | – | inhibition at 1000 μmol/L (ALDH): 56 to 88% |
| COc1c(N2C[C@@H]3CCCN[C@@H]3C2)c(F)cc2c(=O)c(C(=O)O)cn(C3CC3)c12 [A33, moxifloxacin] | – | 17 ± 2 µM | 64 to 88% | – |
| CC1(C)S[C@@H]2[C@H](NC(=O)Cc3ccccc3)C(=O)N2[C@H]1C(=O)O [A15, penicillin G] | 308 ± 68 µM | 56 ± 21 µM | – | inhibition at 5000 μmol/L (OATP1B3 [2]): > 90% |
